Assay results as given in PubChem BioAssay AID256 (DTP/NCI, 2004).
Values joined by “and” are separate entries in the source; they are usually repeats but may differ in a detail not shown here. Identical values can stand only once. Toxic doses and inconclusive results are not listed. Rule for the calls: active = survival T/C of 150% or more; inactive = T/C below 125% in these data.

Tested on: CD2F1 mice, L1210 leukemia ip, survival T/C
Experiment: NCI In Vivo Anticancer Drug Screen. Data for tumor model L1210 Leukemia (intraperitoneal) in CD2F1 (CDF1) mice
Conditions: higher = longer survival
How it was run: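 Ratio T/C, where T is the treated-group value and C the vehicle-dosed control value, from mice implanted with a transplantable tumor.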

[1] = endpoint: mean survival time, dose: 100.0 mg/kg/injection, schedule: Q04DX003 (ip), vehicle: saline with Tween-80
[2] = endpoint: mean survival time, dose: 200.0 mg/kg/injection, schedule: Q04DX003 (ip), vehicle: saline with Tween-80
[3] = endpoint: mean survival time, dose: 400.0 mg/kg/injection, schedule: Q04DX003 (ip), vehicle: saline with Tween-80
[4] = endpoint: mean survival time, dose: 100.0 mg/kg/injection, schedule: Q04DX003 (ip), vehicle: saline
[5] = endpoint: mean survival time, dose: 200.0 mg/kg/injection, schedule: Q04DX003 (ip), vehicle: saline
[6] = endpoint: mean survival time, dose: 400.0 mg/kg/injection, schedule: Q04DX003 (ip), vehicle: saline
[7] = endpoint: mean survival time, dose: 50.0 mg/kg/injection, schedule: Q01DX009 (ip), vehicle: saline with Tween-80
[8] = endpoint: mean survival time, dose: 100.0 mg/kg/injection, schedule: Q01DX009 (ip), vehicle: saline with Tween-80
[9] = endpoint: mean survival time, dose: 200.0 mg/kg/injection, schedule: Q01DX009 (ip), vehicle: saline with Tween-80
[10] = endpoint: mean survival time, dose: 100.0 mg/kg/injection, schedule: Q01DX001 (ip), vehicle: saline with Tween-80
[11] = endpoint: mean survival time, dose: 200.0 mg/kg/injection, schedule: Q01DX001 (ip), vehicle: saline with Tween-80
[12] = endpoint: mean survival time, dose: 400.0 mg/kg/injection, schedule: Q01DX001 (ip), vehicle: saline with Tween-80
[13] = endpoint: mean survival time, dose: 100.0 mg/kg/injection, schedule: Q04DX002 (ip), vehicle: saline with Tween-80
[14] = endpoint: mean survival time, dose: 200.0 mg/kg/injection, schedule: Q04DX002 (ip), vehicle: saline with Tween-80

Measured: T/C

Brc1cn[nH]c1Br
inactive: [1] 98 % of control | [2] 104 % of control | [3] 88 % of control

Cc1cccc(/C=C/c2cccc[n+]2[O-])[n+]1[O-]
inactive: [4] 103 % of control | [5] 96 % of control | [6] 96 % of control

COC12[C@@H]3N[C@@H]3CN1C1=C(C(=O)C(N(C)CCN(C)C)=C(C)C1=O)[C@@H]2COC(N)=O (stereo partly specified)
inactive: endpoint: median survival time, dose: 3.0 mg/kg/injection, schedule: Q01DX001 (ip), vehicle: saline 104 % of control | endpoint: median survival time, dose: 6.0 mg/kg/injection, schedule: Q01DX001 (ip), vehicle: saline 105 % of control | endpoint: median survival time, dose: 12.0 mg/kg/injection, schedule: Q01DX001 (ip), vehicle: saline 119 % of control and 105 % of control | endpoint: median survival time, dose: 24.0 mg/kg/injection, schedule: Q01DX001 (ip), vehicle: saline 109 % of control

CN(C)CCOc1ccccc1Cc1ccccc1
inactive: [7] 104 % of control | [8] 119 % of control | [1] 98 % of control | [9] 107 % of control | [2] 97 % of control

OCC1C2C=CC1CC2 (stereo unspecified)
inactive: [1] 95 % of control | [2] 96 % of control | [3] 96 % of control

CCCCOC1CCC(O)C2CCCCC12 (stereo unspecified)
inactive: [1] 105 % of control | [2] 96 % of control | [3] 104 % of control

CCOC(=O)N(C)CC1C(=O)Nc2ccccc21 (stereo unspecified)
inactive: endpoint: mean survival time, dose: 100.0 mg/kg/injection, schedule: Q04DX003 (ip), vehicle: Klucel (hydroxypropylcellulose) (HPC) 105 % of control | endpoint: mean survival time, dose: 200.0 mg/kg/injection, schedule: Q04DX003 (ip), vehicle: Klucel (hydroxypropylcellulose) (HPC) 110 % of control | endpoint: mean survival time, dose: 400.0 mg/kg/injection, schedule: Q04DX003 (ip), vehicle: Klucel (hydroxypropylcellulose) (HPC) 102 % of control

COc1ccc(OC)c(CC(C(C)=O)C(C)=O)c1
inactive: endpoint: mean survival time, dose: 12.5 mg/kg/injection, schedule: Q01DX009 (ip), vehicle: water 100 % of control | endpoint: mean survival time, dose: 25.0 mg/kg/injection, schedule: Q01DX009 (ip), vehicle: water 96 % of control | endpoint: mean survival time, dose: 50.0 mg/kg/injection, schedule: Q01DX009 (ip), vehicle: water 100 % of control | endpoint: mean survival time, dose: 100.0 mg/kg/injection, schedule: Q01DX009 (ip), vehicle: water 98 % of control | endpoint: mean survival time, dose: 200.0 mg/kg/injection, schedule: Q01DX009 (ip), vehicle: water 95 % of control

CC(CCC(=O)O)C1CCC2C3CCC4CCCCC4(C)C3CCC12C (stereo unspecified)
inactive: [10] 98 % of control | [11] 93 % of control | [12] 92 % of control

Cl/C=C\C[N+]12CN3CN(CN(C3)C1)C2
inactive: [4] 96 % of control

CC1=C(N=[N+]=[N-])C(=O)c2ccccc2C1=O
inactive: [13] 91 % of control | [14] 100 % of control

CO[C@H]1[C@H](O)[C@H](O[C@H]2CC[C@@]3(C)[C@H](CC[C@@H]4[C@@H]3CC[C@]3(C)[C@@H](C5=CC(=O)OC5)CC[C@]43O)C2)O[C@@H](C)[C@@H]1O
inactive: endpoint: mean survival time, dose: 0.5 mg/kg/injection, schedule: Q01DX001 (ip), vehicle: saline 105 % of control | endpoint: mean survival time, dose: 1.0 mg/kg/injection, schedule: Q01DX001 (ip), vehicle: saline 105 % of control | endpoint: mean survival time, dose: 2.0 mg/kg/injection, schedule: Q01DX001 (ip), vehicle: saline 108 % of control | endpoint: mean survival time, dose: 4.0 mg/kg/injection, schedule: Q01DX001 (ip), vehicle: saline 109 % of control

CCn1cnc(-c2ccccc2)c1-c1ccccc1
inactive: endpoint: mean survival time, dose: 25.0 mg/kg/injection, schedule: Q01DX009 (ip), vehicle: saline with Tween-80 110 % of control | [7] 107 % of control | [8] 98 % of control | [1] 101 % of control

O=c1[nH]cnc2n[nH]nc12
inactive: endpoint: mean survival time, dose: 12.5 mg/kg/injection, schedule: Q01DX009 (ip), vehicle: Klucel (hydroxypropylcellulose) (HPC) 116 % of control | endpoint: mean survival time, dose: 25.0 mg/kg/injection, schedule: Q01DX009 (ip), vehicle: Klucel (hydroxypropylcellulose) (HPC) 119 % of control | endpoint: mean survival time, dose: 75.0 mg/kg/injection, schedule: Q01DX001 (ip), vehicle: other 103 % of control | endpoint: mean survival time, dose: 150.0 mg/kg/injection, schedule: Q01DX001 (ip), vehicle: other 108 % of control | endpoint: mean survival time, dose: 300.0 mg/kg/injection, schedule: Q01DX001 (ip), vehicle: other 108 % of control

Nc1nc(=O)n(C2OC(CO)C(O)C2Cl)cc1I (stereo unspecified)
inactive: endpoint: median survival time, dose: 12.5 mg/kg/injection, schedule: Q01DX005 (ip), vehicle: saline with Tween-80 97 % of control | endpoint: median survival time, dose: 25.0 mg/kg/injection, schedule: Q01DX005 (ip), vehicle: saline with Tween-80 112 % of control | endpoint: median survival time, dose: 50.0 mg/kg/injection, schedule: Q01DX005 (ip), vehicle: saline with Tween-80 104 % of control | endpoint: median survival time, dose: 100.0 mg/kg/injection, schedule: Q01DX005 (ip), vehicle: saline with Tween-80 107 % of control | endpoint: median survival time, dose: 200.0 mg/kg/injection, schedule: Q01DX005 (ip), vehicle: saline with Tween-80 104 % of control

CC(=O)OCC(C(=O)OC1CC2C3OC3C(C1)N2C)c1ccccc1 (stereo unspecified)
inactive: endpoint: median survival time, dose: 12.5 mg/kg/injection, schedule: Q04DX003 (ip), vehicle: saline 100 % of control | endpoint: median survival time, dose: 25.0 mg/kg/injection, schedule: Q04DX003 (ip), vehicle: saline 100 % of control | endpoint: median survival time, dose: 50.0 mg/kg/injection, schedule: Q04DX003 (ip), vehicle: saline 88 % of control | endpoint: median survival time, dose: 100.0 mg/kg/injection, schedule: Q04DX003 (ip), vehicle: saline 88 % of control

FC(F)Cc1cccc(C(F)(F)F)c1
inactive: [10] 107 % of control | endpoint: mean survival time, dose: 100.0 mg/kg/injection, schedule: Q04DX003 (ip), vehicle: saline sonified 98 % of control | [11] 103 % of control | endpoint: mean survival time, dose: 200.0 mg/kg/injection, schedule: Q04DX003 (ip), vehicle: saline sonified 100 % of control | [12] 104 % of control | endpoint: mean survival time, dose: 400.0 mg/kg/injection, schedule: Q04DX003 (ip), vehicle: saline sonified 100 % of control

CC(=O)Nc1ccc2c(c1)Cc1cc(NC(C)=O)c(Cl)cc1-2
inactive: [1] 103 % of control | [2] 97 % of control | [3] 98 % of control

COC1OC(CO)C(O)C(O)C1O (stereo unspecified)
inactive: endpoint: mean survival time, dose: 100.0 mg/kg/injection, schedule: Q01DX001 (ip), vehicle: saline 101 % of control and 105 % of control | [4] 97 % of control | endpoint: mean survival time, dose: 200.0 mg/kg/injection, schedule: Q01DX001 (ip), vehicle: saline 108 % of control and 105 % of control | [5] 102 % of control | endpoint: mean survival time, dose: 400.0 mg/kg/injection, schedule: Q01DX001 (ip), vehicle: saline 101 % of control and 105 % of control | [6] 97 % of control

COc1cc(NC(=O)Nc2ccccc2C)c(OC)cc1Cl
inactive: [13] 90 % of control | [14] 90 % of control | endpoint: mean survival time, dose: 400.0 mg/kg/injection, schedule: Q04DX002 (ip), vehicle: saline with Tween-80 86 % of control

Cc1cc([N+](=O)[O-])ccc1NC(=S)NC(=O)COc1ccccc1
inactive: [10] 95 % of control | [8] 93 % of control and 102 % of control | [13] 95 % of control | [1] 98 % of control | [11] 89 % of control | [9] 93 % of control | [14] 91 % of control | [2] 97 % of control | [12] 87 % of control | endpoint: mean survival time, dose: 400.0 mg/kg/injection, schedule: Q01DX009 (ip), vehicle: saline with Tween-80 92 % of control | [3] 93 % of control
